Experimental data published in PubChem BioAssay (NCI).
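Five concentrations, 48 hours, 96-well plates. GI50 marks 50% less growth. TGI is the concentration that stops growth completely.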

Assays:
Assay in all cases: NCI anticancer screen, dose series, 48 h
786-0 renal = test system: 786-0 renal
A498 renal = test system: A498 renal
A549 NSCLC = test system: A549 NSCLC
ACHN renal = test system: ACHN renal
BT-549 breast = test system: BT-549 breast
CAKI-1 renal = test system: CAKI-1 renal
CCRF-CEM leukemia = test system: CCRF-CEM leukemia
COLO 205 colon = test system: COLO 205 colon
DU-145 prostate = test system: DU-145 prostate
EKVX NSCLC = test system: EKVX NSCLC
HCC-2998 colon = test system: HCC-2998 colon
HCT-116 colon = test system: HCT-116 colon
HCT-15 colon = test system: HCT-15 colon
HOP-62 NSCLC = test system: HOP-62 NSCLC
HOP-92 NSCLC = test system: HOP-92 NSCLC
HS 578T breast = test system: HS 578T breast
HT29 colon = test system: HT29 colon
IGROV1 ovarian = test system: IGROV1 ovarian
K-562 leukemia = test system: K-562 leukemia
KM12 colon = test system: KM12 colon
LOX IMVI melanoma = test system: LOX IMVI melanoma
M14 melanoma = test system: M14 melanoma
MALME-3M melanoma = test system: MALME-3M melanoma
MCF7 breast = test system: MCF7 breast
MDA-MB-231 breast = test system: MDA-MB-231 breast
MDA-MB-435 = test system: MDA-MB-435
MOLT-4 leukemia = test system: MOLT-4 leukemia
NCI-H226 lung = test system: NCI-H226 lung
NCI-H23 lung = test system: NCI-H23 lung
NCI-H460 lung = test system: NCI-H460 lung
NCI/ADR-RES ovarian = test system: NCI/ADR-RES ovarian
OVCAR-3 ovarian = test system: OVCAR-3 ovarian
OVCAR-4 ovarian = test system: OVCAR-4 ovarian
OVCAR-5 ovarian = test system: OVCAR-5 ovarian
OVCAR-8 ovarian = test system: OVCAR-8 ovarian
PC-3 prostate = test system: PC-3 prostate
RPMI-8226 leukemia = test system: RPMI-8226 leukemia
RXF 393 renal = test system: RXF 393 renal
SF-268 CNS = test system: SF-268 CNS
SF-295 CNS = test system: SF-295 CNS
SF-539 CNS = test system: SF-539 CNS
SK-MEL-2 melanoma = test system: SK-MEL-2 melanoma
SK-MEL-28 melanoma = test system: SK-MEL-28 melanoma
SK-MEL-5 melanoma = test system: SK-MEL-5 melanoma
SK-OV-3 ovarian = test system: SK-OV-3 ovarian
SN12C renal = test system: SN12C renal
SNB-19 CNS = test system: SNB-19 CNS
SNB-75 CNS = test system: SNB-75 CNS
SR leukemia = test system: SR leukemia
SW-620 colon = test system: SW-620 colon
T-47D breast = test system: T-47D breast
TK-10 renal = test system: TK-10 renal
U251 CNS = test system: U251 CNS
UACC-257 melanoma = test system: UACC-257 melanoma
UACC-62 melanoma = test system: UACC-62 melanoma
UO-31 renal = test system: UO-31 renal

Molecule COC(=O)[C@]12CC[C@@H](C)[C@H](C)[C@@H]1C1=CC[C@@H]3[C@@]4(C)C(C=O)=C[C@@](C)(CO)[C@@H]4[C@H](O)C[C@@]3(C)[C@]1(C)CC2 has a GI50 (786-0 renal) of 2.97 µM, a TGI (786-0 renal) of 11.1 µM and a GI50 (A498 renal) of 6.37 µM. The TGI (A498 renal) was 19.4 µM, the GI50 (A549 NSCLC) was 4.15 µM and the TGI (A549 NSCLC) was 14.6 µM. It also gave a GI50 (ACHN renal) of 3.47 µM, a TGI (ACHN renal) of 12.2 µM and a GI50 (BT-549 breast) of 3.27 µM. It also gave a TGI (BT-549 breast) of 14.1 µM, a GI50 (CAKI-1 renal) of 3.71 µM and a TGI (CAKI-1 renal) of 16.8 µM. The GI50 (CCRF-CEM leukemia) was 3.73 µM, the TGI (CCRF-CEM leukemia) was 13.7 µM and the GI50 (COLO 205 colon) was 2.17 µM. The TGI (COLO 205 colon) was 4.93 µM, the GI50 (DU-145 prostate) was 4.77 µM and the TGI (DU-145 prostate) was 16.5 µM. The GI50 (EKVX NSCLC) was 4.03 µM, the TGI (EKVX NSCLC) was 16 µM and the GI50 (HCC-2998 colon) was 3.13 µM. For the same molecule, the TGI (HCC-2998 colon) was 9.45 µM, the GI50 (HCT-116 colon) was 2.76 µM and the TGI (HCT-116 colon) was 8.97 µM. The GI50 (HCT-15 colon) was 2.11 µM, the TGI (HCT-15 colon) was 6 µM and the GI50 (HOP-62 NSCLC) was 13.8 µM. It also gave a TGI (HOP-62 NSCLC) of 29.6 µM, a GI50 (HOP-92 NSCLC) of 6.18 µM and a TGI (HOP-92 NSCLC) of 20.9 µM. The GI50 (HS 578T breast) was 4.82 µM, the TGI (HS 578T breast) was 26.4 µM and the GI50 (HT29 colon) was 2.44 µM. The TGI (HT29 colon) was 7.54 µM, the GI50 (IGROV1 ovarian) was 4.25 µM and the TGI (IGROV1 ovarian) was 21 µM. For the same molecule, the GI50 (K-562 leukemia) was 3.86 µM, the TGI (K-562 leukemia) was 15.5 µM and the GI50 (KM12 colon) was 4.02 µM. It also gave a TGI (KM12 colon) of 15.3 µM, a GI50 (LOX IMVI melanoma) of 2.77 µM and a TGI (LOX IMVI melanoma) of 11.2 µM. It also gave a GI50 (M14 melanoma) of 4.13 µM, a TGI (M14 melanoma) of 17.8 µM and a GI50 (MALME-3M melanoma) of 2.62 µM. The TGI (MALME-3M melanoma) was 10.4 µM, the GI50 (MCF7 breast) was 2.44 µM and the TGI (MCF7 breast) was 10.3 µM. It also gave a GI50 (MDA-MB-231 breast) of 7.86 µM, a TGI (MDA-MB-231 breast) of 22.3 µM and a GI50 (MDA-MB-435) of 3.29 µM. It also gave a TGI (MDA-MB-435) of 13.4 µM, a GI50 (MOLT-4 leukemia) of 2.79 µM and a TGI (MOLT-4 leukemia) of 8.73 µM. For the same molecule, the GI50 (NCI-H226 lung) was 13.9 µM, the TGI (NCI-H226 lung) was 46.9 µM and the GI50 (NCI-H23 lung) was 2.97 µM. The TGI (NCI-H23 lung) was 12.2 µM, the GI50 (NCI-H460 lung) was 3.03 µM and the TGI (NCI-H460 lung) was 9.6 µM. It also gave a GI50 (NCI/ADR-RES ovarian) of 4.12 µM, a TGI (NCI/ADR-RES ovarian) of 34.6 µM and a GI50 (OVCAR-3 ovarian) of 2.54 µM. It also gave a TGI (OVCAR-3 ovarian) of 7.78 µM, a GI50 (OVCAR-4 ovarian) of 4.17 µM and a TGI (OVCAR-4 ovarian) of 16.8 µM. It also gave a GI50 (OVCAR-5 ovarian) of 3.47 µM, a TGI (OVCAR-5 ovarian) of 17.9 µM and a GI50 (OVCAR-8 ovarian) of 3.51 µM. It also gave a TGI (OVCAR-8 ovarian) of 14.4 µM, a GI50 (PC-3 prostate) of 4.14 µM and a TGI (PC-3 prostate) of 18.5 µM. For the same molecule, the GI50 (RPMI-8226 leukemia) was 2.44 µM, the TGI (RPMI-8226 leukemia) was 7.74 µM and the GI50 (RXF 393 renal) was 2.64 µM. The TGI (RXF 393 renal) was 8.75 µM, the GI50 (SF-268 CNS) was 5.16 µM and the TGI (SF-268 CNS) was 20.4 µM. It also gave a GI50 (SF-295 CNS) of 3.94 µM, a TGI (SF-295 CNS) of 16.5 µM and a GI50 (SF-539 CNS) of 10.1 µM. The TGI (SF-539 CNS) was 22.8 µM, the GI50 (SK-MEL-2 melanoma) was 7.26 µM and the TGI (SK-MEL-2 melanoma) was 22.5 µM. It also gave a GI50 (SK-MEL-28 melanoma) of 3.33 µM, a TGI (SK-MEL-28 melanoma) of 12.4 µM and a GI50 (SK-MEL-5 melanoma) of 5.8 µM. For the same molecule, the TGI (SK-MEL-5 melanoma) was 18.4 µM, the GI50 (SK-OV-3 ovarian) was 17 µM and the TGI (SK-OV-3 ovarian) was 31.6 µM. For the same molecule, the GI50 (SN12C renal) was 4.85 µM, the TGI (SN12C renal) was 17.3 µM and the GI50 (SNB-19 CNS) was 7.69 µM. For the same molecule, the TGI (SNB-19 CNS) was 21.7 µM, the GI50 (SNB-75 CNS) was 2.72 µM and the TGI (SNB-75 CNS) was 19.3 µM. The GI50 (SR leukemia) was 1.92 µM, the TGI (SR leukemia) was 6.74 µM and the GI50 (SW-620 colon) was 4.23 µM. For the same molecule, the TGI (SW-620 colon) was 15.8 µM, the GI50 (T-47D breast) was 2.11 µM and the TGI (T-47D breast) was 13.2 µM. The GI50 (TK-10 renal) was 2.49 µM, the TGI (TK-10 renal) was 9.42 µM and the GI50 (U251 CNS) was 3.83 µM. It also gave a TGI (U251 CNS) of 13.8 µM, a GI50 (UACC-257 melanoma) of 3.11 µM and a TGI (UACC-257 melanoma) of 13.1 µM. For the same molecule, the GI50 (UACC-62 melanoma) was 3.71 µM, the TGI (UACC-62 melanoma) was 14.8 µM and the GI50 (UO-31 renal) was 2.28 µM. The TGI (UO-31 renal) was 12.2 µM.
